Assay results taken from BindingDB's records for doi:10.1016/j.bioorg.2017.04.005 (Shenyang Pharmaceutical University, 2017).
Where a SMILES comes first, the peptide text is derived from it. [ ]: non-standard residue; d: D form. pY = N[C@@H](Cc1ccc(OP(=O)(O)O)cc1)C(=O)O

Molecular target: T1, Histone-lysine N-methyltransferase EHMT2 (Homo sapiens, UniProt Q96KQ7)
T1 sequence (Q96KQ7 whole entry): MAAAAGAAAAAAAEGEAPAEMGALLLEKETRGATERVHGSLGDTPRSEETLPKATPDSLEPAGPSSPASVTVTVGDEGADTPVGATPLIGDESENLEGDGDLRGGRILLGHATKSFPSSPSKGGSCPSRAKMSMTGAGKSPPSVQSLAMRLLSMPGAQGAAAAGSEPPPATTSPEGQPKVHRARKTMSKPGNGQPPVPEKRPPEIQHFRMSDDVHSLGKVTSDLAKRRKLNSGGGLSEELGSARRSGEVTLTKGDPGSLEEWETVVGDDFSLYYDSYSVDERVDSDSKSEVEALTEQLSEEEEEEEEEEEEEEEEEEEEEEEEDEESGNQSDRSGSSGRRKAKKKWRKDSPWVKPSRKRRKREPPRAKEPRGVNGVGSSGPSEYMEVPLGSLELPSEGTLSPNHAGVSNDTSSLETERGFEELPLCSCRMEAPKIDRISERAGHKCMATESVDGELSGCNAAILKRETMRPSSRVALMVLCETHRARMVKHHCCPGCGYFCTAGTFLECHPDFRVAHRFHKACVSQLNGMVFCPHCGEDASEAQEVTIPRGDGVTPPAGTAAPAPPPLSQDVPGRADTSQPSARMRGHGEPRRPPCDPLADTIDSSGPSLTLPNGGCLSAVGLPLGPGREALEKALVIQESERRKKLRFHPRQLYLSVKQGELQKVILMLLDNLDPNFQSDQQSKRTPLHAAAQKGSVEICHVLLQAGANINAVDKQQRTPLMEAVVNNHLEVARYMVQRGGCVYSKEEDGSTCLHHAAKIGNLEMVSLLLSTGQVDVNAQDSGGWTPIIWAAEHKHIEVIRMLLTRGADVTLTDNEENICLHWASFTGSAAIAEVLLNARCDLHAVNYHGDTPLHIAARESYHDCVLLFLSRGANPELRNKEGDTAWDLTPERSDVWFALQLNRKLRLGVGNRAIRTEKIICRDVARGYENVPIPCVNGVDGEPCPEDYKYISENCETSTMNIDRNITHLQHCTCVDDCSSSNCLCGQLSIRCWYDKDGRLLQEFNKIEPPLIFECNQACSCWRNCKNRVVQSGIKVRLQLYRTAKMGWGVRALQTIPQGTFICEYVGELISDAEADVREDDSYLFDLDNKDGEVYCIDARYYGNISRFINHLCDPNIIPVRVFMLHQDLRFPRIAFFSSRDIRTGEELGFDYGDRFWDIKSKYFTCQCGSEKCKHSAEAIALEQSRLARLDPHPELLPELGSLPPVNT
Test: Enzymatic Assay
Conditions: pH 8.5; 25 °C
Protocol: Biochemical activity of G9a was measured as described [Kubicek et al., Mol. Cell, 25:473-481]. Assays were performed in white, opaque 384-well plates coated with Neutravidin (Pierce Biotechnology). Brd 4770 was used as a positive control. Test compounds were diluted to 12 μg/ml in Baffer A (50 mM Tris-HCl pH 8.5 containing 4% DMSO) and 10 μl was dispensed into the wells. Blank and control wells received only compound buffer. GST-G9a at 10 μg/ml and SAM at 40 μM were diluted in Buffer B (50 mM Tris HCl pH 8.5/10 mM DTT) and added in a volume of 20 μL. Blank wells received Tris/DTT buffer only. The reactions were initiated by the addition of 800 nM H3 (1-20)-cysbiotin substrate in Buffer C (50 mM Tris pH 8.5) in a volume of 10 μL, and incubated at room temperature for 60 min. The plates were washed 3 times with 100 μL of Wash Buffer (50 mM Tris pH 7.4, 150 mM NaCl, 0.05% Tween 20, 0.2% BSA). Next, 50 μl of Fluoroimmunoassay (FI) Buffer (50 mM Tris HCl pH 7.8, 150 mM NaCl, 0.05% Tween 40, 25 μM DTPA, 0.2% BSA, 0.05% BGG) containing 5 ng α-2X-di-meth H3-K9 and 5 ng goat anti-rabbit Eu chelate (Perkin Elmer Life Sciences) was added to all wells of the plate, and the plate was incubated for an additional hour at room temperature. The plates were washed 3 times with 100 μL of Wash Buffer, and 50 μL of Enhancement Solution (Perkin Elmer Life Sciences) was added to each well. Time resolved fluorescence was measured after 45 min on a Viewlux Microplate Imager (Perkin Elmer Life Sciences) imaging for 15 s with a 354 μs window, 400 μs delay, excitation at 360 nm, and emission at 618 nm.

Row | Structure (SMILES) | IC50 [µM]
1 | O=S(=O)(Nc1ccc2c(c1)nc(-c1ccccc1)n2CCCc1ccccc1)c1ccccc1Br [2-Bromo-N-(2-phenyl-1-(3-phenylpropyl)-1H-benzo[d]imidazol-5-yl)benzenesulfonamide (19)] | 20.8
2 | O=S(=O)(Nc1ccc2nc(-c3ccccc3)oc2c1)c1ccccc1Br [2-Bromo-N-(2-phenylbenzo[d]oxazol-6-yl)benzenesulfonamide (8)] | > 40
3 | O=C(Nc1ccc2c(c1)nc(-c1ccccc1)n2CCCc1ccccc1)c1ccccc1F [2-Fluoro-N-(2-phenyl-1-(3-phenylpropyl)-1H-benzo[d]imidazol-5-yl)benzamide (21)] | 9.59
4 | O=C(Nc1ccc2nc(-c3ccccc3)oc2c1)c1ccccc1F [2-Fluoro-N-(2-phenylbenzo[d]oxazol-6-yl)benzamide (11)] | > 40
5 | COc1ccccc1C(=O)Nc1ccc2c(c1)nc(-c1ccccc1)n2CCCc1ccccc1 [2-Methoxy-N-(2-phenyl-1-(3-phenylpropyl)-1H-benzo[d]imidazol-5-yl)benzamide (23)] | 1.75
6 | COc1ccccc1S(=O)(=O)Nc1ccc2c(c1)nc(-c1ccccc1)n2CCCc1ccccc1 [2-Methoxy-N-(2-phenyl-1-(3-phenylpropyl)-1H-benzo[d]imidazol-5-yl)benzenesulfonamide (14)] | 2.63
7 | COc1ccccc1C(=O)Nc1ccc2nc(-c3ccccc3)oc2c1 [2-Methoxy-N-(2-phenylbenzo[d]oxazol-6-yl)benzamide (10)] | 12.8
8 | O=C(Nc1ccc2c(c1)nc(-c1ccccc1)n2CCCc1ccccc1)c1cccc(Br)c1 [3-Bromo-N-(2-phenyl-1-(3-phenylpropyl)-1H-benzo[d]imidazol-5-yl)benzamide (22)] | 1.32
9 | O=C(Nc1ccc2nc(-c3ccccc3)oc2c1)c1cccc(Br)c1 [3-Bromo-N-(2-phenylbenzo[d]oxazol-6-yl)benzamide (12)] | 15.3
10 | O=[N+]([O-])c1cccc(S(=O)(=O)Nc2ccc3c(c2)nc(-c2ccccc2)n3CCCc2ccccc2)c1 [3-Nitro-N-(2-phenyl-1-(3-phenylpropyl)-1H-benzo[d]imidazol-5-yl)benzenesulfonamide (13)] | 35.4
11 | CC(C)(C)c1ccc(S(=O)(=O)Nc2ccc3c(c2)nc(-c2ccccc2)n3CCCc2ccccc2)cc1 [4-(tert-Butyl)-N-(2-phenyl-1-(3-phenylpropyl)-1H-benzo[d]imidazol-5-yl)benzenesulfonamide (20)] | 16.3
12 | CC(C)(C)c1ccc(S(=O)(=O)Nc2ccc3nc(-c4ccccc4)oc3c2)cc1 [4-(tert-Butyl)-N-(2-phenylbenzo[d]oxazol-6-yl)benzenesulfonamide (9)] | 36.3
13 | N#Cc1ccc(S(=O)(=O)Nc2ccc3c(c2)nc(-c2ccccc2)n3CCCc2ccccc2)cc1 [4-Cyano-N-(2-phenyl-1-(3-phenylpropyl)-1H-benzo[d]imidazol-5-yl)benzenesulfonamide (18)] | 18.8
14 | N#Cc1ccc(S(=O)(=O)Nc2ccc3nc(-c4ccccc4)oc3c2)cc1 [4-Cyano-N-(2-phenylbenzo[d]oxazol-6-yl)benzenesulfonamide (7)] | 30.4
15 | O=S(=O)(Nc1ccc2c(c1)nc(-c1ccccc1)n2CCCc1ccccc1)c1ccc(F)cc1 [4-Fluoro-N-(2-phenyl-1-(3-phenylpropyl)-1H-benzo[d]imidazol-5-yl)benzenesulfonamide (17)] | 16.1
16 | COC(=O)c1ccc2c(c1)nc(NC(=O)c1ccccc1)n2CCCc1ccccc1 [Brd4470] | 6.1
17 | CC(C)C[C@H](NC(=O)[C@H](CC(N)=O)NC(=O)[C@@H](N)CC(=O)O)C(=O)N[C@@H](Cc1ccc(O)cc1)C(=O)N[C@@H](Cc1ccc(OP(=O)(O)O)cc1)C(=O)N[C@@H](Cc1c[nH]c2ccccc12)C(=O)N[C@@H](CC(=O)O)C(=O)N[C@@H](CCC(N)=O)C(=O)N[C@@H](CC(=O)O)C(=O)N1CCC[C@H]1C(=O)N1CCC[C@H]1C(=O)O [ErbB2-pep] (H-DNLY[pY]WDQDPP-OH) | 15.3
18 | CC(C)[C@H](NC(=O)[C@@H](N)CCC(=O)O)C(=O)N[C@@H](CO)C(=O)N[C@@H](Cc1ccccc1)C(=O)N[C@@H](Cc1ccc(OP(=O)(O)O)cc1)C(=O)N[C@@H](Cc1ccc(O)cc1)C(=O)N[C@@H](CO)C(=O)N[C@@H](CCC(=O)O)C(=O)N[C@@H](CCC(=O)O)C(=O)N[C@@H](CC(N)=O)C(=O)N[C@@H](CCCCN)C(=O)O [IGF1R-pep] (H-EVSF[pY]YSEENK-OH) | 19
19 | CC(C)[C@H](NC(=O)[C@H](CO)NC(=O)[C@H](CO)NC(=O)[C@@H]1CCCN1)C(=O)N[C@@H](Cc1ccc(OP(=O)(O)O)cc1)C(=O)N[C@H](C(=O)N1CCC[C@H]1C(=O)N[C@@H](CC(=O)O)C(=O)N[C@@H](CCC(=O)O)C(=O)N[C@@H](Cc1c[nH]c2ccccc12)C(=O)N[C@@H](CCC(=O)O)C(=O)O)C(C)C [IR-pep] (H-PSSV[pY]VPDEWE-OH) | 26.2
20 | O=S(=O)(Nc1ccc2c(c1)nc(-c1ccccc1)n2CCCc1ccccc1)c1ccc(OC(F)(F)F)cc1 [N-(2-phenyl-1-(3-phenylpropyl)-1H-benzo[d]imidazol-5-yl)-4-(trifluoromethoxy)benzenesulfonamide (16)] | 21.9
21 | O=S(=O)(Nc1ccc2c(c1)nc(-c1ccccc1)n2CCCc1ccccc1)c1ccc(C(F)(F)F)cc1 [N-(2-phenyl-1-(3-phenylpropyl)-1H-benzo[d]imidazol-5-yl)-4-(trifluoromethyl)benzenesulfonamide (15)] | 16
22 | O=C(Nc1ccc2c(c1)nc(-c1ccccc1)n2CCCc1ccccc1)c1ccc(-c2ccccc2)cc1 [N-(2-phenyl-1-(3-phenylpropyl)-1H-benzo[d]imidazol-5-yl)-[1,1'-biphenyl]-4-carboxamide (24)] | 12.2
